Reference: EP0067666A1, “Salts of antimicrobial naphthyridine and quinoline compounds and their production” (priority 1981, dated 1982)
In brackets after ≈: the same amount, converted by molar mass. Marks after values point to notes of the source that are not given here.

How the values were obtained:
Assay type in all cases: physicochemical
[1] = 10x dilution of soluble forms with standard IV solutions (pH, precipitate); settings: for Solution 1 ppt 24 hr / Solution 3 ppt 24 hr / Solution 2 ppt 24 hr / Solution 4 ppt 24 hr: precipitate at 24 hr; for Concen. of Cpd A: undiluted solution used for the 10x dilutions; for Solution 1 ppt 4 hr / Solution 3 ppt 4 hr / Solution 2 ppt 4 hr / Solution 4 ppt 4 hr: precipitate at 4 hr
Method: (§1) The amount of Compound A or Compound B calculated for selected concentrations was weighed into volumetric flasks. Equimolar quantities of combining acid, amino acid, or base were added either as solutions or in dry form. Deionized water was added to bring the volume to that desired for the preselected concentrations.. All flasks were sonicated for 15 minutes, allowed to stand at room temperature for 30 minutes, then filtered through a fine frit sintered glass funnel. After the pH of the filtrate was taken, suitable dilutions were made into 0.1N HCl for ultraviolet spectrophotometric assay of concentration. Ten fold dilutions of the original filtrates were made into standard I.V. solutions.

[2] = Solubility of lyophilized and crystalline solids; settings: for pH of Solution Lyo. / Conc. of CPD A mg/ml Lyo.: lyophilized solid
[3] = Solubility screening procedure (concentration and pH of filtrate); settings: for Conc. of CPD A: compound A + equimolar acid; for Conc. of CPD A / Conc. of CPD B: amino acid or base in deionized water, room temperature, filtrate, UV assay; for pH of Solution: pH of the filtrate; for Conc. of CPD B: compound B + equimolar acid
Method: as §1

[4] = Cpd A salt solution diluted 10x with 0.9% NaCl
[5] = Cpd A salt solution diluted 10x with 5% Dextrose
[6] = Cpd A salt solution diluted 10x with 5% Dextrose + 0.9% NaCl
[7] = Cpd A salt solution diluted 10x with Lactated Ringer's Solution
[8] = concentrated Cpd B solution (154-221 mg/ml) diluted 10x with 5% Dextrose
[9] = concentrated Cpd B solution (154-221 mg/ml) diluted 10x with 5% Dextrose + 0.9% NaCl
[10] = concentrated Cpd B solution (154-221 mg/ml) diluted 10x with Lactated Ringer's Solution
[11] = concentrated Cpd B solution (155-221 mg/ml) diluted 10x with 0.9% NaCl
[12] = concentrated Cpd B solution diluted 10x with 5% Dextrose + 0.9% NaCl
[13] = concentrated Cpd B solution diluted 10x with 5% Dextrose
[14] = concentrated Cpd B solution diluted 10x with Lactated Ringer's Solution
[15] = undiluted concentrated Cpd B solution used for the Solution 1 dilution
[16] = undiluted concentrated solution (at least 155 mg/ml) used for the Solution 1 dilution (for most salts for all four solutions)
[17] = low-concentration Cpd B solution (26.2-52 mg/ml) diluted 10x with 0.9% NaCl

SMILES | Solution 1 pH dil [1, 4] | Solution 1 ppt 24 hr [1, 4] | Solution 2 pH dil [1, 5] | Solution 3 pH dil [1, 6] | Solution 3 ppt 24 hr [1, 6] | Solution 2 ppt 24 hr [1, 5] | Solution 4 pH dil [1, 7] | Solution 4 ppt 24 hr [1, 7] | pH of Solut. ([1]; undiluted Cpd A solution) | Concen. of Cpd A [1] [µg/mL] | Conc. of CPD B [3] [µg/mL] | pH of Solution ([3]; CPD B solutions) | Solution 2 pH dil [1, 8] | Solution 3 pH dil [1, 9] | Solution 4 pH dil [1, 10] | Solution 1 pH dil [1, 11] | Solution 1 ppt 4 hr [1, 11] | Solution 1 ppt 24 hr [1, 11] | Solution 3 ppt 4 hr [1, 12] | Solution 3 ppt 24 hr [1, 12] | further results
CCn1cc(C(=O)O)c(=O)c2cc(F)c(N3CCNCC3)cc21 [A D-Galacturonic] | 5.36 | no | 5.18 | 5.20 | no | slight | 5.36 | no | 5.44 | 166000 | – | – | – | – | – | – | – | – | – | – | pH of Solution Cryst. ([2]; CPD A salt, crystalline solid): 4.9; pH of Solution Lyo. ([2]; CPD A salt): 4.0; solubility ([2]; crystalline solid, not necessarily maximum value, read-out: Conc. of CPD A mg/ml Cryst.): 183 mg/mL (≈ 573 mM); Conc. of CPD A mg/ml Lyo. ([2]; not necessarily maximum value): 256 mg/mL
CCn1cc(C(=O)O)c(=O)c2cc(F)c(N3CCNCC3)cc21 [A D-Gluconic] | 4.4 | no | 4.3 | 4.4 | no | no | 4.7 | no | 4.30 | 182000 | – | – | – | – | – | – | – | – | – | – | pH of Solution Cryst. ([2]; CPD A salt, crystalline solid): 4.83; pH of Solution Lyo. ([2]; CPD A salt): 5.1; Conc. of CPD A mg/ml Lyo. ([2]; not necessarily maximum value): 255 mg/mL
CCn1cc(C(=O)O)c(=O)c2cc(F)c(N3CCNCC3)cc21 [A Isethionic] | 2.18 | no | 2.27 | 2.08 | no | no | 3.70 | no | 1.35 | 175000 | – | – | – | – | – | – | – | – | – | – | Conc. of CPD A [3]: 175000 µg/mL; pH of Solution ([3]; CPD A solutions): 1.35
CCn1cc(C(=O)O)c(=O)c2cc(F)c(N3CCNCC3)cc21 [A L-Cysteic] | 3.17 | no | 2.82 | 2.68 | no | no | 3.70 | slight | 2.92 | 166000 | – | – | – | – | – | – | – | – | – | – | Conc. of CPD A [3]: 166000 µg/mL; pH of Solution ([3]; CPD A solutions): 2.92
CCn1cc(C(=O)O)c(=O)c2cc(F)c(N3CCNCC3)cc21 [A Methane Sulphonic] | 5.4 | no | 2.7 | 2.5 | no | no | 4.5 | no | 1.5 | 173000 | – | – | – | – | – | – | – | – | – | – | Conc. of CPD A [3]: 175000 µg/mL; pH of Solution ([3]; CPD A solutions): 1.33
CCn1cc(C(=O)O)c(=O)c2cc(F)c(N3CCNCC3)nc21 [B Acetic] | – | – | – | – | – | – | – | – | – | – | 195000 | 4.97^c | 5.6 | 5.4 | 5.3 | 5.2 | yes | yes | yes | yes | Solution 2 ppt 4 hr [1, 13]: slight; Solution 2 ppt 24 hr [1, 13]: slight; Solution 4 ppt 4 hr [1, 14]: slight; Solution 4 ppt 24 hr [1, 14]: yes; pH of Solut. [1, 15]: 4.97; Concen. of Cpd B [1, 16]: 195000 µg/mL
CCn1cc(C(=O)O)c(=O)c2cc(F)c(N3CCNCC3)nc21 [B D-Gluconic] | – | – | – | – | – | – | – | – | – | – | – | – | 4.5 | 4.8 | 4.6 | 4.6 | no | yes | no | yes | Solution 2 ppt 24 hr [1, 13]: no; Solution 4 ppt 24 hr [1, 14]: no; pH of Solut. [1, 15]: 4.6; Concen. of Cpd B [1, 16]: 168000 µg/mL; pH of Solution Cryst. ([2]; CPD B salt, crystalline solid): 4.78; pH of Solution Lyo. ([2]; CPD B salt): 4.8
CCn1cc(C(=O)O)c(=O)c2cc(F)c(N3CCNCC3)nc21 [B Hydrochloric] | – | – | – | – | – | – | – | – | – | – | 7000 | 1.83^c | – | – | – | – | – | – | – | – | pH of Solution Cryst. ([2]; CPD B salt, crystalline solid): 3
CCn1cc(C(=O)O)c(=O)c2cc(F)c(N3CCNCC3)nc21 [B L-Cysteic] | – | – | – | – | – | – | – | – | – | – | 221000 | 2.78 | 2.9 | 2.8 | 3.9 | 2.8 | yes | yes | yes | yes | Solution 2 ppt 4 hr [1, 13]: hazy; Solution 2 ppt 24 hr [1, 13]: hazy; Solution 4 ppt 4 hr [1, 14]: yes; Solution 4 ppt 24 hr [1, 14]: yes; Solution 1 pH dil [1, 17]: 3.29; Solution 1 ppt 24 hr [1, 17]: no; pH of Solut. [1, 15]: 2.78; Concen. of Cpd B [1, 16]: 221000 µg/mL; pH of Solut. ([1]; undiluted low-concentration Cpd B solution (26.2-52 mg/ml)): 2.96; Concen. of Cpd B ([1]; undiluted low-concentration solution (26.2-52 mg/ml), diluted with Solution 1 only): 52000 µg/mL
CCn1cc(C(=O)O)c(=O)c2cc(F)c(N3CCNCC3)nc21 [B Lactic] | – | – | – | – | – | – | – | – | – | – | 217000 | 4.24^b | 4.2 | 4.1 | 4.3 | 4.1 | yes | yes | yes | yes | Solution 2 ppt 4 hr [1, 13]: hazy; Solution 2 ppt 24 hr [1, 13]: hazy; Solution 4 ppt 4 hr [1, 14]: yes; Solution 4 ppt 24 hr [1, 14]: yes; pH of Solut. [1, 15]: 4.04; Concen. of Cpd B [1, 16]: 221000 µg/mL
